# From US20070116829A1, “Pharmaceutical Composition with High-Potency Sweetener” (THE COCA-COLA COMPANY, priority 2005, published 2007)
# Key:
# [1] = Rate of dissolution in H2O at 25° C. of rebaudioside A polymorph and amorphous forms; format: physicochemical
# [2] = format: physicochemical
# Experimental: A solution of rebaudioside A (>97% pure by HPLC) was prepared in double distilled water (12.5 gm in 50 mL, 25% concentration) by stirring the mixture at 40° C. for 5 minutes. An amorphous form of rebaudioside A was formed by immediately using the clear solution for spray drying with the Lab-Plant spray drier SD-04 instrument (Lab-Plant Ltd., West Yorkshire, U.K.). The solution was fed through the feed pump into the nozzle atomizer which atomized it into a spray of droplets with the help of a constant flow of nitrogen/air. […] This dry powder (11-12 g, H2O 6.74%) was discharged continuously from the drying chamber and was collected in a bottle.
Rate of dissolution in H2O at 25° C. (in words) [1],Rate of dissolution in H2O at 25° C. ([1]; per 60 minutes),Rate of dissolution in H2O at 25° C. ([1]; per 5 minutes),solubility in water at room temperature [2] [%],Structure (SMILES)
Very low,(<0.2%/60 %/60 minutes,,,"C=C1C[C@@]23CC[C@H]4[C@@](C)(CCC[C@@]4(C)C(=O)O[C@@H]4O[C@H](CO)[C@@H](O)[C@H](O)[C@H]4O)[C@@H]2CC[C@]1(O[C@@H]1O[C@H](CO)[C@@H](O)[C@H](O[C@@H]2O[C@H](CO)[C@@H](O)[C@H](O)[C@H]2O)[C@H]1O[C@@H]1O[C@H](CO)[C@@H](O)[C@H](O)[C@H]1O)C3 [Form 1, rebaudioside A]"
High,,(>35.0%/5 %/5 minutes,> 35.0,"C=C1C[C@@]23CC[C@H]4[C@@](C)(CCC[C@@]4(C)C(=O)O[C@@H]4O[C@H](CO)[C@@H](O)[C@H](O)[C@H]4O)[C@@H]2CC[C@]1(O[C@@H]1O[C@H](CO)[C@@H](O)[C@H](O[C@@H]2O[C@H](CO)[C@@H](O)[C@H](O)[C@H]2O)[C@H]1O[C@@H]1O[C@H](CO)[C@@H](O)[C@H](O)[C@H]1O)C3 [Form 4, rebaudioside A]"
High,,(>30%/5 %/5 minutes,,"C=C1C[C@@]23CC[C@H]4[C@@](C)(CCC[C@@]4(C)C(=O)O[C@@H]4O[C@H](CO)[C@@H](O)[C@H](O)[C@H]4O)[C@@H]2CC[C@]1(O[C@@H]1O[C@H](CO)[C@@H](O)[C@H](O[C@@H]2O[C@H](CO)[C@@H](O)[C@H](O)[C@H]2O)[C@H]1O[C@@H]1O[C@H](CO)[C@@H](O)[C@H](O)[C@H]1O)C3 [Form 3, rebaudioside A]"
Intermediate,,(<30%/5 %/5 minutes,,"C=C1C[C@@]23CC[C@H]4[C@@](C)(CCC[C@@]4(C)C(=O)O[C@@H]4O[C@H](CO)[C@@H](O)[C@H](O)[C@H]4O)[C@@H]2CC[C@]1(O[C@@H]1O[C@H](CO)[C@@H](O)[C@H](O[C@@H]2O[C@H](CO)[C@@H](O)[C@H](O)[C@H]2O)[C@H]1O[C@@H]1O[C@H](CO)[C@@H](O)[C@H](O)[C@H]1O)C3 [Form 2, rebaudioside A]"
